One series has as its system Escherichia coli. The series is described as follows: Antibacterial activity against Escherichia coli ATCC 25922 assessed as bacterial growth inhibition incubated for 16 to 18 hrs by CLSI based susceptibility testing method. The series is classed as functional. The settings on record: time 16-18 hrs.
Series [1] concerns Staphylococcus aureus. As to the kind of experiment: Antibacterial activity against Staphylococcus aureus ATCC 29213 assessed as bacterial growth inhibition incubated for 16 to 18 hrs by CLSI based susceptibility testing method. The series is classed as functional. The settings on record: time 16-18 hrs.
The next series relates to Klebsiella pneumoniae. As to the kind of experiment: Antibacterial activity against Klebsiella pneumoniae BAA 1705 assessed as bacterial growth inhibition incubated for 16 to 18 hrs by CLSI based susceptibility testing method. Format: functional. The settings on record: time 16-18 hrs.
In the next series the test system is Acinetobacter baumannii. As to the kind of experiment: Antibacterial activity against Acinetobacter baumannii BAA 1605 assessed as bacterial growth inhibition incubated for 16 to 18 hrs by CLSI based susceptibility testing method. The series is classed as functional. The note with it: time 16-18 hrs.
For the next series, the system named is Pseudomonas aeruginosa. The series is described as follows: Antibacterial activity against Pseudomonas aeruginosa ATCC 27853 assessed as bacterial growth inhibition incubated for 16 to 18 hrs by CLSI based susceptibility testing method. The series is classed as functional. The note with it: time 16-18 hrs.
For series [2], the system named is Mycobacterium tuberculosis. The series is described as follows: Antimycobacterial activity against Mycobacterium tuberculosis H37Rv ATCC 27294 assessed as bacterial growth inhibition incubated for 7 days by resazurin dye based assay. Format: functional. The settings on record: H37Rv ATCC 27294, 168 h, time 7 day.
For series [3], the system named is Mycobacteroides abscessus. The series is described as follows: Antimycobacterial activity against Mycobacterium abscessus ATCC 19977 assessed as bacterial growth inhibition incubated for 7 days by resazurin dye based assay. Format: functional. The settings on record: ATCC 19977, 168 h, time 7 day. (Alamar Blue is a resazurin reagent that responds to reducing activity.)

For series [4], the system named is Mycolicibacterium fortuitum. The series is described as follows: Antimycobacterial activity against Mycobacterium fortuitum ATCC 6841 assessed as bacterial growth inhibition incubated for 7 days by resazurin dye based assay. The series is classed as functional. The note with it: ATCC 6841, 168 h, time 7 day.
In another series the test system is Mycobacteroides chelonae. The series is described as follows: Antimycobacterial activity against Mycobacteroides chelonae ATCC 35752 assessed as bacterial growth inhibition incubated for 7 days by resazurin dye based assay. The series is classed as functional. The note with it: ATCC 35752, 168 h, time 7 day.
Series [5] in a line: Cytotoxicity against African green monkey Vero cells assessed as reduction in cell viability incubated for 72 hrs by MTT assay. The series is classed as toxicity, cell-based. The note with it: chlorocebus sabaeus.
Series [6] is described as follows: Selectivity index, ratio of CC50 for African green monkey Vero cells to IC50 for Mycobacterium tuberculosis H37Rv ATCC 27294. The note with it: read-out: Selectivity Index. Format: toxicity.
The nature of series [7]: Selectivity index, ratio of CC50 for African green monkey Vero cells to IC50 for Staphylococcus aureus ATCC 29213. Format: toxicity. The settings on record: read-out: Selectivity Index.
Series [8] relates to Staphylococcus aureus. As to the kind of experiment: Antibacterial activity against methicillin-sensitive Staphylococcus aureus ATCC 29213 clinical isolate assessed as bacterial growth inhibition incubated for 16 to 18 hrs by CLSI based susceptibility testing method. The series is classed as functional. The settings on record: time 16-18 hrs.
Series [9] deals with Staphylococcus aureus. The series is described as follows: Antibacterial activity against methicillin-resistant Staphylococcus aureus NR 100 clinical isolate assessed as bacterial growth inhibition incubated for 16 to 18 hrs by CLSI based susceptibility testing method. The series is classed as functional. The note with it: time 16-18 hrs.
In series [10] the test system is Staphylococcus aureus. The series is described as follows: Antibacterial activity against methicillin-resistant Staphylococcus aureus NR 119 clinical isolate assessed as bacterial growth inhibition incubated for 16 to 18 hrs by CLSI based susceptibility testing method. The note with it: time 16-18 hrs. Format: functional.
In series [11] the test system is Staphylococcus aureus. The series is described as follows: Antibacterial activity against methicillin-resistant Staphylococcus aureus NR 129 clinical isolate assessed as bacterial growth inhibition incubated for 16 to 18 hrs by CLSI based susceptibility testing method. Format: functional. The note with it: time 16-18 hrs.
The subject of series [12] is Staphylococcus aureus. The series is described as follows: Antibacterial activity against methicillin-resistant Staphylococcus aureus NR 186 clinical isolate assessed as bacterial growth inhibition incubated for 16 to 18 hrs by CLSI based susceptibility testing method. The series is classed as functional. The note with it: time 16-18 hrs.
Series [13] concerns Staphylococcus aureus. The series is described as follows: Antibacterial activity against methicillin-resistant Staphylococcus aureus NR 191 clinical isolate assessed as bacterial growth inhibition incubated for 16 to 18 hrs by CLSI based susceptibility testing method. The note with it: time 16-18 hrs. Format: functional.
The test system of series [14] is Staphylococcus aureus. The series is described as follows: Antibacterial activity against methicillin-resistant Staphylococcus aureus NR 192 clinical isolate assessed as bacterial growth inhibition incubated for 16 to 18 hrs by CLSI based susceptibility testing method. The series is classed as functional. The settings on record: time 16-18 hrs.
The test system of series [15] is Staphylococcus aureus. The series is described as follows: Antibacterial activity against methicillin-resistant Staphylococcus aureus NR 193 clinical isolate assessed as bacterial growth inhibition incubated for 16 to 18 hrs by CLSI based susceptibility testing method. The series is classed as functional. The settings on record: time 16-18 hrs.
Series [16] has as its system Staphylococcus aureus. The series is described as follows: Antibacterial activity against methicillin-resistant Staphylococcus aureus NR 194 clinical isolate assessed as bacterial growth inhibition incubated for 16 to 18 hrs by CLSI based susceptibility testing method. The series is classed as functional. The note with it: time 16-18 hrs.
Series [17] deals with Staphylococcus aureus. The series is described as follows: Antibacterial activity against methicillin-resistant Staphylococcus aureus NR 198 clinical isolate assessed as bacterial growth inhibition incubated for 16 to 18 hrs by CLSI based susceptibility testing method. Format: functional. The settings on record: time 16-18 hrs.
Series [18] relates to Staphylococcus aureus. The series is described as follows: Antibacterial activity against vancomycin-resistant Staphylococcus aureus VRS 1 clinical isolate assessed as bacterial growth inhibition incubated for 16 to 18 hrs by CLSI based susceptibility testing method. The note with it: time 16-18 hrs. Format: functional.
In series [19] the test system is Staphylococcus aureus. As to the kind of experiment: Antibacterial activity against vancomycin-resistant Staphylococcus aureus VRS 4 clinical isolate assessed as bacterial growth inhibition incubated for 16 to 18 hrs by CLSI based susceptibility testing method. Format: functional. The settings on record: time 16-18 hrs.
For series [20], the system named is Staphylococcus aureus. The series is described as follows: Antibacterial activity against vancomycin-resistant Staphylococcus aureus VRS 12 clinical isolate assessed as bacterial growth inhibition incubated for 16 to 18 hrs by CLSI based susceptibility testing method. The series is classed as functional. The settings on record: time 16-18 hrs.
In series [21] the test system is Staphylococcus aureus. The series is described as follows: Antibiofilm activity against Staphylococcus aureus ATCC 29213 assessed as reduction in biofilm formation at 10 times MIC incubated for 24 hrs by absorbance based assay relative to control. Format: functional. The arrangement: scale not given: the % may be the effect or the level left.

Converted amounts (≈) assume the structure as drawn.

One may read the MIC as the least concentration at which growth counts as inhibited. As usually defined, the CC50 is the concentration giving 50% cytotoxicity.

On to `Cc1ccc(-n2c(C)cc(/C=C3\S/C(=N/c4nccs4)NC3=O)c2C)cc1C`, for which the MIC in the series with Escherichia coli is over 64 µg/mL; in the series on Staphylococcus aureus [1] it was 16 µg/mL (≈ 39.2 µM); with Klebsiella pneumoniae, over 64 µg/mL; with Acinetobacter baumannii, over 64 µg/mL; in the series on Pseudomonas aeruginosa, over 64 µg/mL; in [2], 0.5 µg/mL (≈ 1.22 µM). In addition, the MIC (in series [3]; in [4]; in the series with Mycobacteroides chelonae) was over 64 µg/mL throughout. Further, in series [5], the CC50 at 72 h worked out at 40 µg/mL (≈ 97.9 µM). In addition, the selectivity ratio in [6] was determined as 80.

As for `COc1ccccc1-n1c(C)cc(/C=C2\S/C(=N/c3nccs3)NC2=O)c1C`, the minimum inhibitory concentration (MIC) was over 64 µg/mL in the series on Escherichia coli; 0.5 µg/mL (≈ 1.22 µM) with Staphylococcus aureus [1]; over 64 µg/mL with Klebsiella pneumoniae; over 64 µg/mL with Acinetobacter baumannii; over 64 µg/mL with Pseudomonas aeruginosa; 2 µg/mL (≈ 4.87 µM) in [2]. Further, the MIC in series [3] is over 64 µg/mL; in series [4], over 64 µg/mL; in the series on Mycobacteroides chelonae, over 64 µg/mL; in the series on Staphylococcus aureus [8], 0.5 µg/mL (≈ 1.22 µM); in the series on Staphylococcus aureus [9] it was 1 µg/mL (≈ 2.44 µM); in the series on Staphylococcus aureus [10], 2 µg/mL (≈ 4.87 µM). Further, the MIC came to 2 µg/mL (≈ 4.87 µM) with Staphylococcus aureus [11]; 1 µg/mL (≈ 2.44 µM) in the series with Staphylococcus aureus [12]; 2 µg/mL (≈ 4.87 µM) in the series with Staphylococcus aureus [13]; 2 µg/mL (≈ 4.87 µM) with Staphylococcus aureus [14]; 2 µg/mL (≈ 4.87 µM) with Staphylococcus aureus [15]; 2 µg/mL (≈ 4.87 µM) in the series with Staphylococcus aureus [16]. Moreover, the MIC with Staphylococcus aureus [17], with Staphylococcus aureus [18], with Staphylococcus aureus [19] and in the series with Staphylococcus aureus [20] was 2 µg/mL (≈ 4.87 µM) throughout. Further, the CC50 at 72 h in [5] was determined as 40 µg/mL (≈ 97.4 µM). In addition, the selectivity ratio in series [7] was found to be 80. Moreover, in the series on Staphylococcus aureus [21], the Activity is over 11%.

For the molecule `C[C@H]1COc2c(N3CCN(C)CC3)c(F)cc3c(=O)c(C(=O)O)cn1c23` [LEVOFLOXACIN ANHYDROUS], the minimum inhibitory concentration (MIC) was determined as 0.25 µg/mL (≈ 0.692 µM) with Staphylococcus aureus [1]; 64 µg/mL (≈ 177 µM) with Klebsiella pneumoniae; 0.25 µg/mL (≈ 0.692 µM) in the series with Staphylococcus aureus [8]; 0.25 µg/mL (≈ 0.692 µM) with Staphylococcus aureus [9]; 16 µg/mL (≈ 44.3 µM) in the series with Staphylococcus aureus [10]; 0.25 µg/mL (≈ 0.692 µM) in the series on Staphylococcus aureus [11]. The MIC with Staphylococcus aureus [12] was 4 µg/mL (≈ 11.1 µM); in the series with Staphylococcus aureus [13] it was 16 µg/mL (≈ 44.3 µM); in the series with Staphylococcus aureus [14] it was 8 µg/mL (≈ 22.1 µM); in the series with Staphylococcus aureus [15], 32 µg/mL (≈ 88.6 µM); with Staphylococcus aureus [16] it was 0.125 µg/mL (≈ 0.346 µM); with Staphylococcus aureus [17], 32 µg/mL (≈ 88.6 µM). The figures for the minimal inhibitory concentration (MIC) in the series with Staphylococcus aureus [18], with Staphylococcus aureus [19] and with Staphylococcus aureus [20] were 32 µg/mL (≈ 88.6 µM), over 64 µg/mL and 32 µg/mL (≈ 88.6 µM), respectively. The Activity in the series on Staphylococcus aureus [21] was 10%.

Turning to `CN[C@H](CC(C)C)C(=O)N[C@H]1C(=O)N[C@@H](CC(N)=O)C(=O)N[C@H]2C(=O)N[C@H]3C(=O)N[C@H](C(=O)N[C@H](C(=O)O)c4cc(O)cc(O)c4-c4cc3ccc4O)[C@H](O)c3ccc(c(Cl)c3)Oc3cc2cc(c3O[C@@H]2O[C@H](CO)[C@@H](O)[C@H](O)[C@H]2O[C@H]2C[C@](C)(N)[C@H](O)[C@H](C)O2)Oc2ccc(cc2Cl)[C@H]1O` [VANCOMYCIN], the minimum inhibitory concentration (MIC) in the series on Staphylococcus aureus [18], in the series on Staphylococcus aureus [19] and in the series on Staphylococcus aureus [20] was over 64 µg/mL in each case. Further, in the series on Staphylococcus aureus [21], the Activity is recorded as 7.7%.

Source of the values: ChEMBL document CHEMBL5634099, “Pyrrole-thiazolidinone hybrids as a new structural class of broad-spectrum anti-infectives” (Eur J Med Chem, 2023).
